Experimental data from patent US8772286B2, “MK2 inhibitors” (Merck Sharp & Dohme B.V., priority 2009, dated 2014).
In brackets after ≈: the same amount, converted by molar mass. Where two headings read alike, the source gives them in different places.

What was measured:
MK2 enzyme = biological target: T1, MK2 enzyme (Homo sapiens, UniProt P49137); test: MK2 enzyme activity, IMAP fluorescence polarization assay; format: biochemical
T1 construct: MK2 enzyme (active enzyme (peptide 46-end (Millipore))); purchased Millipore
Excerpt: In another assay the MK2 kinase activity can be determined by using an IMAP assay (Immobilized Metal Assay for Phosphochemicals—based coupled assay). IMAP is a homogeneous fluorescence polarization (FP) assay based on affinity capture of phosphorylated peptide substrates. IMAP uses fluorescein-labeled peptide substrates that, upon phosphorylation by a protein kinase, bind to so called IMAP nanoparticles, which are derivatized with trivalent metal complexes. […] In such an assay, MK2 phosphorylates a fluorescein-labeled peptide substrate (see example 14).
MK2 enzyme activity is measured using the IMAP (immobilized metal ion affinity-based fluorescence polarization) assay as outlined below.
The enzyme is diluted to 100 U/mL the day before use in KR buffer (10 mM Tris-HCl, 10 mM MgCl2, 0.01% Tween-20, 0.05% NaN3, 2 mM DTT, pH 7.2) and stored overnight at −20° C.
The dilutions in DMSO are then diluted 50-fold in KR-buffer of which 5 μl is used in the assay, leading to a final compound concentration range in the assay from 10 μM to 0.316 nM.
After 60 min incubation at room temperature in the dark the FP signal is read. Fluorescence at 535 nm is measured using parallel and perpendicular filters to determine differences in rotation due to binding of the phosphorylated substrate peptide to the beads. Values are calculated as percentage of the difference in readout (ΔmPi) of the controls with and without ATP. EC50 values are determined by curve fitting of the experimental results using Activity Base.

[1] = Solubility determination of MK2 inhibitors (kinetic aqueous solubility, UPLC); format: physicochemical; conditions: aqueous buffer (system solution from pION inc.), 22 °C, pH 7.4, aqueous buffer, kinetic from dmso stock
Protocol: The solubility can be determined using the Automated Kinetic Aqueous Solubility (AKASol) method, which is an HPLC-UV based method. The method is derived from the classical saturated shake-flask solubility method which has been adapted to the 96-well microtitre plate format, allowing the use of DMSO stock solutions. The solubility is determined by measuring the amount of compound in a saturated aqueous solution, quantified by an external calibration curve of the compound dissolved in DMSO. The solubility (mg/L) is measured at pH 7.4, at room temperature and the final concentration of DMSO in the sample solution is 1%.
The samples were prepared from 10 mM DMSO stock solutions. For each compound under investigation, a volume (9 μL) of the DMSO stock solution is transferred from the DMSO stock solution into 891 μL of buffer solution (system solution from pION inc.) in a 96 deep well plate, which equates to approximately 1% DMSO, using the Packard Multiprobe II robot liquid handling system. The pH of the buffer is manually adjusted at pH 7.4 by adding NaOH. This procedure is done in duplicate for each sample. After shaking for 24 h on a vortex mixer (Heidolph, Titramax 101) at 450 rpm and at room temperature (21-23° C.), 300 uL of the incubated sample is transferred from the deep well plate to a filter plate (PVDF, 0.45 um) on a vacuum manifold. To the filtrate (150 uL) 1-propanol (50 uL) is added to suppress precipitation and this solution is then analysed by UPLC. The solubility is determined using the calibration line previously prepared.
Preparation of the Standards and Built up of a Calibration Line
The calibration line is built with different concentrations of the test compound (standards), prepared from the same 10 mM DMSO stock solution. A volume (7 uL) from the same DMSO stock solution was diluted with DMSO (273 uL) leading to a solution with concentration of 0.25 mM. From this solution, three different injection volumes (0.2, 1, 1.8 uL) were injected on UPLC. The respective peak areas are plotted against amount of compound to build up the calibration line. The calibration line is used to determine the amount of dissolved compound in each sample, selecting the injection that gave peak areas closest to the peak area range of the calibration standards.

[2] = MK2 IMAP assay, 1 μM ATP, 30 min pre-incubation, 2 h room temperature, read-out: pEC50 value (converted)
[3] = pH 7.4, room temperature, about 1% DMSO, 24 h shaking, read-out: solubility
[4] = Table 1, compound of Formula (I) with spiro ring, pH 7.4, read-out: Solubility pH 7.4 (mg/L), Formula (I)

T1 sequence (P49137 46-400 limits assumed): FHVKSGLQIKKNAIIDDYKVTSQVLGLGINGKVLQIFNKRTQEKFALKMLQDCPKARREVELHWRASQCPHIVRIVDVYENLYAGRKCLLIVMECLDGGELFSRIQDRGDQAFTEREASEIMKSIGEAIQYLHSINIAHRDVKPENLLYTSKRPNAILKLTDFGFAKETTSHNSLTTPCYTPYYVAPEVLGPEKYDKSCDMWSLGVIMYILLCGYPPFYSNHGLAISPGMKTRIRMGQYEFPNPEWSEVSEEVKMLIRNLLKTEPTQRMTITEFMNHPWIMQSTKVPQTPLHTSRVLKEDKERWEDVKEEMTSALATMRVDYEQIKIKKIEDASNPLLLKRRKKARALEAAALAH

For `CC(=O)Nc1ccc(-c2nccc(-c3cc4c([nH]3)C3(CCNCC3)CNC4=O)n2)cn1` [1—8, N-(5-(4-(4′-oxo-1′,4′,5′,6′-tetrahydrospiro[piperidine-4,7′-pyrrolo[3,2-c]pyridine]-2′-yl)pyrimidin-2-yl)pyridin-2-yl)acetamide], the EC50 (MK2 enzyme; [2]) was 0.00316 to 0.0316 µM and the solubility at 24 h [1, 3] was at least 50 mg/L.
Molecule `Nc1ncc(-c2nccc(-c3cc4c([nH]3)C3(CCNCC3)CNC4=O)n2)cn1` [1—2, 2′-(2′-amino-2,5′-bipyrimidin-4-yl)-5′,6′-dihydrospiro[piperidine-4,7′-pyrrolo[3,2-c]pyridin]-4′(1′H)-one] has an EC50 (MK2 enzyme; [2]) of at most 0.00316 µM and a solubility at 24 h [1, 3] of 20 to 50 mg/L (≈ 53.1 to 133 µM).
Molecule `O=C1NCC2(CCNCC2)c2[nH]c(-c3ccnc(-c4ccc5c(c4)OCO5)n3)cc21` [1—7, 2′-(2-(benzo[d][1,3]dioxol-5-yl)pyrimidin-4-yl)-5′,6′-dihydrospiro[piperidine-4,7′-pyrrolo[3,2-c]pyridin]-4′(1′H)-one] has an EC50 (MK2 enzyme; [2]) of 0.00316 to 0.0316 µM and a solubility at 24 h [1, 3] of 20 to 50 mg/L (≈ 49.6 to 124 µM).
For `O=C1NCC2(CCNCC2)c2[nH]c(-c3ccnc(-c4cc5ccccc5o4)c3)cc21` [Example 8—1, 2′-(2-(benzofuran-2-yl)pyridin-4-yl)-5′,6′-dihydrospiro[piperidine-4,7′-pyrrolo[3,2-c]pyridin]-4′(1′H)-one], the EC50 (MK2 enzyme; [2]) was 0.00316 to 0.0316 µM and the solubility at 24 h [1, 3] was at least 50 mg/L.
In the case of `O=C1NCC2(CCNCC2)c2[nH]c(-c3ccnc(-c4cc5ccccc5o4)n3)cc21` [16_6 Formula (I)], the EC50 (MK2 enzyme; Table 1, compound of Formula (I) with spiro ring, MK2 IMAP assay, read-out: pEC50, Formula (I) (converted)) is reported as 0.00631 µM and the solubility at 24 h [1, 4] is reported as 84 mg/L.
With `O=C1NCC2(CCNC2)c2[nH]c(-c3ccnc(-c4ccc5c(c4)OCO5)n3)cc21` (centres unmarked) [6—2, 2′-(2-(benzo[d][1,3]dioxol-5-yl)pyrimidin-4-yl)-5′,6′-dihydrospiro[pyrrolidine-3,7′-pyrrolo[3,2-c]pyridin]-4′(1′H)-one] the EC50 (MK2 enzyme; [2]) was 0.00316 to 0.0316 µM and the solubility at 24 h [1, 3] was at least 50 mg/L.
Work on `O=C1NCC2(CCNCC2)c2[nH]c(-c3ccnc(-c4cc(C(F)(F)F)cc(C(F)(F)F)c4)n3)cc21` [1—34, 2′-(2-(3,5-bis(trifluoromethyl)phenyl)pyrimidin-4-yl)-5′,6′-dihydrospiro[piperidine-4,7′-pyrrolo[3,2-c]pyridin]-4′(1′H)-one] yielded an EC50 (MK2 enzyme; [2]) of 0.0316 to 0.316 µM and a solubility at 24 h [1, 3] of at least 50 mg/L.
`O=C1NCC2(CCNCC2)c2[nH]c(-c3ccnc(-c4ccc(-c5ccccc5)cc4)n3)cc21` [1—12, 2′-(2-(biphenyl-4-yl)pyrimidin-4-yl)-5′,6′-dihydrospiro[piperidine-4,7′-pyrrolo[3,2-c]pyridin]-4′(1′H)-one] showed an EC50 (MK2 enzyme; [2]) of 0.00316 to 0.0316 µM and a solubility at 24 h [1, 3] of 20 to 50 mg/L (≈ 45.9 to 115 µM).
With `O=C(Nc1cc(-c2cc3c([nH]2)C2(CCNCC2)CNC3=O)ccn1)c1ccc(C(F)(F)F)cc1` [Example 12—1, N-(4-(4′-oxo-1′,4′,5′,6′-tetrahydrospiro[piperidine-4,7′-pyrrolo[3,2-c]pyridine]-2′-yl)pyridin-2-yl)-4-(trifluoromethyl)benzamide] the EC50 (MK2 enzyme; [2]) was at most 0.00316 µM and the solubility at 24 h [1, 3] was 20 to 50 mg/L (≈ 42.6 to 107 µM).
Molecule `CN1CCC2(CC1)CNC(=O)c1cc(-c3ccnc(-c4cc5ccccc5o4)n3)[nH]c12` [Example 2—1, 2′-(2-(benzofuran-2-yl)pyrimidin-4-yl)-1-methyl-5′,6′-dihydrospiro[piperidine-4,7′-pyrrolo[3,2-c]pyridin]-4′(1′H)-one] has an EC50 (MK2 enzyme) of 0.00316 to 0.0316 µM and a solubility at 24 h [1, 3] of 20 to 50 mg/L (≈ 48.4 to 121 µM).
Work on `Cc1ccc(C(=O)Nc2cc(-c3cc4c([nH]3)C3(CCNCC3)CNC4=O)ccn2)cc1C` [12—2, 3,4-dimethyl-N-(4-(4′-oxo-1′,4′,5′,6′-tetrahydrospiro[piperidine-4,7′-pyrrolo[3,2-c]pyridine]-2′-yl)pyridin-2-yl)benzamide] yielded an EC50 (MK2 enzyme; [2]) of at most 0.00316 µM and a solubility at 24 h [1, 3] of at least 50 mg/L.
For `O=C1NCC2(CCNCC2)c2[nH]c(-c3ccnc(-c4ccc5c(c4)OCO5)c3)cc21` [8—3, 2′-(2-(benzo[d][1,3]dioxol-5-yl)pyridin-4-yl)-5′,6′-dihydrospiro[piperidine-4,7′-pyrrolo[3,2-c]pyridin]-4′(1′H)-one], the EC50 (MK2 enzyme; [2]) was at most 0.00316 µM and the solubility at 24 h [1, 3] was at least 50 mg/L.
In the case of `O=C1NCC2(CCNCC2)c2[nH]c(-c3ccnc(-c4cnc5ccccc5c4)n3)cc21` [16_2 Formula (I)], the “pEC50, Formula (I)” value (MK2 enzyme; Table 1, compound of Formula (I) with spiro ring, MK2 IMAP assay) is reported as 8.2 and the solubility at 24 h [1, 4] is reported as 23 mg/L.
Work on `O=C1NCC2(CCNCC2)c2[nH]c(-c3ccnc(-c4cccc(-c5ccccc5)c4)n3)cc21` [1—33, 2′-(2-(biphenyl-3-yl)pyrimidin-4-yl)-5′,6′-dihydrospiro[piperidine-4,7′-pyrrolo[3,2-c]pyridin]-4′(1′H)-one] yielded an EC50 (MK2 enzyme; [2]) of 0.0316 to 0.316 µM and a solubility at 24 h [1, 3] of at least 50 mg/L.
Molecule `O=C1NCC2(CCNCC2)c2[nH]c(-c3ccnc(-c4cc(Cl)cc(Cl)c4)n3)cc21` [1—25, 2′-(2-(3,5-dichlorophenyl)pyrimidin-4-yl)-5′,6′-dihydrospiro[piperidine-4,7′-pyrrolo[3,2-c]pyridin]-4′(1′H)-one] has an EC50 (MK2 enzyme; [2]) of 0.00316 to 0.0316 µM and a solubility at 24 h [1, 3] of at least 50 mg/L.
`O=C1NCC2(CCNCC2)c2[nH]c(-c3ccnc(-c4ccc5oc6ccccc6c5c4)n3)cc21` [1—26, 2′-(2-(dibenzo[b,d]furan-2-yl)pyrimidin-4-yl)-5′,6′-dihydrospiro[piperidine-4,7′-pyrrolo[3,2-c]pyridin]-4′(1′H)-one] gave an EC50 (MK2 enzyme; [2]) of 0.0316 to 0.316 µM and a solubility at 24 h [1, 3] of 20 to 50 mg/L (≈ 44.5 to 111 µM).
`O=C1NCC2(CCNCC2)c2[nH]c(-c3ccnc(-c4ccc(C(F)(F)F)c(Cl)c4)n3)cc21` [1—10, 2′-(2-(3-chloro-4-(trifluoromethyl)phenyl)pyrimidin-4-yl)-5′,6′-dihydrospiro[piperidine-4,7′-pyrrolo[3,2-c]pyridin]-4′(1′H)-one] showed an EC50 (MK2 enzyme; [2]) of 0.00316 to 0.0316 µM and a solubility at 24 h [1, 3] of at least 50 mg/L.
Molecule `CC(=O)c1ccc(-c2nccc(-c3cc4c([nH]3)C3(CCNCC3)CNC4=O)n2)cc1` [1—6, 2′-(2-(4-acetylphenyl)pyrimidin-4-yl)-5′,6′-dihydrospiro[piperidine-4,7′-pyrrolo[3,2-c]pyridin]-4′(1′H)-one] has an EC50 (MK2 enzyme; [2]) of 0.00316 to 0.0316 µM and a solubility at 24 h [1, 3] of 20 to 50 mg/L (≈ 49.8 to 125 µM).
Work on `O=C1NCC2(CCNC2)c2[nH]c(-c3ccnc(-c4cccc(F)c4)n3)cc21` (centres unmarked) [6—4, 2′-(2-(3-fluorophenyl)pyrimidin-4-yl)-5′,6′-dihydrospiro[pyrrolidine-3,7′-pyrrolo[3,2-c]pyridin]-4′(1′H)-one] yielded an EC50 (MK2 enzyme; [2]) of 0.00316 to 0.0316 µM and a solubility at 24 h [1, 3] of 20 to 50 mg/L (≈ 55 to 138 µM).
For `O=C1NCC2(CCNCC2)c2[nH]c(-c3ccnc(-c4cccc(C(F)(F)F)c4)n3)cc21` [1—35, 2′-(2-(3-(trifluoromethyl)phenyl)pyrimidin-4-yl)-5′,6′-dihydrospiro[piperidine-4,7′-pyrrolo[3,2-c]pyridin]-4′(1′H)-one], the EC50 (MK2 enzyme; [2]) was 0.00316 to 0.0316 µM and the solubility at 24 h [1, 3] was at least 50 mg/L.
For `O=C1NCCc2[nH]c(-c3ccnc(-c4cc5ccccc5o4)c3)cc21` [16_7 Formula (XV)], the EC50 (MK2 enzyme) was 0.126 µM and the solubility at 24 h ([1]; Table 1, comparison compound of Formula (XV) without spiro ring, pH 7.4, read-out: Solubility pH 7.4 (mg/L), Formula (XV)) was 2 mg/L.
Work on `O=C1NCC2(CCNCC2)c2[nH]c(-c3ccnc(-c4ccc(C(F)(F)F)cc4)n3)cc21` [1—17, 2′-(2-(4-(trifluoromethyl)phenyl)pyrimidin-4-yl)-5′,6′-dihydrospiro[piperidine-4,7′-pyrrolo[3,2-c]pyridin]-4′(1′H)-one] yielded an EC50 (MK2 enzyme; [2]) of 0.00316 to 0.0316 µM and a solubility at 24 h [1, 3] of at least 50 mg/L.
